The values below come from paper PMC10365998, “An ATP-sensitive phosphoketolase regulates carbon fixation in cyanobacteria” (Nature Metabolism, 2023).

The target of data set [1] is T1, SeXPK (Synechococcus elongatus, UniProt Q31LF9, H706R).
T1 construct: gene Synpcc7942_2080; N-terminal 6His tag, pDC vector, E. coli; dodecamer of six dimers; purified with TPP/Mg2+
Kind of data set: acetyl phosphate formation, hydroxamate colorimetric assay. In kind it is biochemical. To be noted: 30 mM phosphate, pH 6.4, 1 mM TPP, 1 mM MgCl2; no ATP.

In data set [2] the target is T2, SeXPK (Synechococcus elongatus, UniProt Q31LF9, Y710A).
T2 construct: gene Synpcc7942_2080; N-terminal 6His tag, pDC vector, E. coli; dodecamer of six dimers; purified with TPP/Mg2+
T2 sequence (Q31LF9 whole entry Y710A): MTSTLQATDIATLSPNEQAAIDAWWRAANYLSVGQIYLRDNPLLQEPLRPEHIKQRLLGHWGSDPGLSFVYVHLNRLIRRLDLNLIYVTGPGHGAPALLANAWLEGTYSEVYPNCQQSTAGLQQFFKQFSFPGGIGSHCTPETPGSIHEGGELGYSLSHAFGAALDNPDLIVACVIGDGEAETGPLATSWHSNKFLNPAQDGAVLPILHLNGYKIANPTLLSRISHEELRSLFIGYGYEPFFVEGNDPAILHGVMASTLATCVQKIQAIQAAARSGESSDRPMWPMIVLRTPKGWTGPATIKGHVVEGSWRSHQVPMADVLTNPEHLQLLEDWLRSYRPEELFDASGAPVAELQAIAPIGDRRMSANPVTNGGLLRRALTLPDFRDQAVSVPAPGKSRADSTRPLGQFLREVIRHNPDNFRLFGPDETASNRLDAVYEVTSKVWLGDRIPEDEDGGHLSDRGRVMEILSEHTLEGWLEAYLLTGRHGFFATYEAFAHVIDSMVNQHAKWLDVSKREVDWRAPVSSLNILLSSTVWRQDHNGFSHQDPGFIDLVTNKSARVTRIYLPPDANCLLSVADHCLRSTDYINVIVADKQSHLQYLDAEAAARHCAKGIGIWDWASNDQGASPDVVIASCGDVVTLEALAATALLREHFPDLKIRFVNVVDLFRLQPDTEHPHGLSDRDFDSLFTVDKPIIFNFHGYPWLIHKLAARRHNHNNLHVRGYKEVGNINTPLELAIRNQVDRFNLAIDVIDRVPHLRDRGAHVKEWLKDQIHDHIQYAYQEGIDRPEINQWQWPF
The data set is described as above. In kind it is biochemical. To be noted: 30 mM phosphate, pH 6.4, 1 mM TPP, 1 mM MgCl2; no ATP.

Data set [3] deals with T3, SeXPK (Synechococcus elongatus, UniProt Q31LF9, H706A).
T3 construct: gene Synpcc7942_2080; N-terminal 6His tag, pDC vector, E. coli; dodecamer of six dimers; purified with TPP/Mg2+
T3 sequence (Q31LF9 whole entry H706A): as the sequence (Q31LF9 whole entry Y710A) above, with H706A, A710Y counted along it
The description is as above. The data set is classed as biochemical. As to conditions: 30 mM phosphate, pH 6.4, 1 mM TPP, 1 mM MgCl2; no ATP; most activity lost.

The target in data set [4] is T4, Methylomonas sp. XPK (MeXPK) (Methylomonas sp. DH-1, UniProt A0A172UD65).
T4 construct: same plasmid as SeXPK (N-terminal 6His tag), expressed in E. coli and purified
T4 sequence (A0A172UD65 1-788): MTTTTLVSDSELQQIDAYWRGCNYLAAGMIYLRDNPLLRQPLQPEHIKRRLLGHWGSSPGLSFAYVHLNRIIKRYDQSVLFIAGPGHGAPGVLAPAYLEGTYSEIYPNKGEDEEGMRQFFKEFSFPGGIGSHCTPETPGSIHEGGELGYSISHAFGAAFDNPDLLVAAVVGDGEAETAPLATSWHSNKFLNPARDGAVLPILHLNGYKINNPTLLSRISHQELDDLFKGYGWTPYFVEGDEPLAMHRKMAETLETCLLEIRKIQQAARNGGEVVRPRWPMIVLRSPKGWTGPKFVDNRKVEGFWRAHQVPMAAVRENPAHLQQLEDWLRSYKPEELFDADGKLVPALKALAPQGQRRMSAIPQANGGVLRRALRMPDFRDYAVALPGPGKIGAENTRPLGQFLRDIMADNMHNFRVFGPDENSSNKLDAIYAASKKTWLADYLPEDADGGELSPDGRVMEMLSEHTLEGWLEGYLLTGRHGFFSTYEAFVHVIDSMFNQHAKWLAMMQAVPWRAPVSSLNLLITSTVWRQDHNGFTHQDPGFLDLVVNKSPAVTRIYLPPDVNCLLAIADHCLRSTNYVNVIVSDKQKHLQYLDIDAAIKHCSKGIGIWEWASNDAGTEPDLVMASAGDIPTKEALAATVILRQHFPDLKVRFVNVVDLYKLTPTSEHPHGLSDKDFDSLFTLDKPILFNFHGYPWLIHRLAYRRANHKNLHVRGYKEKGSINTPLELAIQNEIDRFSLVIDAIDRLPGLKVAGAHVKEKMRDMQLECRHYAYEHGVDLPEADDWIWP
Described as above. In kind it is biochemical. To be noted: 30 mM phosphate, pH 6.4, 1 mM TPP, 1 mM MgCl2; no ATP. From the text:
acetyl phosphate formation, hydroxamate colorimetric assay on Methylomonas sp. XPK (MeXPK) | Methylomonas sp.

The target in data set [5] is T5, SeXPK (Synechococcus elongatus, UniProt Q31LF9).
T5 construct: gene Synpcc7942_2080; N-terminal 6His tag, pDC vector, E. coli; dodecamer of six dimers; purified with TPP/Mg2+
T5 sequence (Q31LF9 1-796): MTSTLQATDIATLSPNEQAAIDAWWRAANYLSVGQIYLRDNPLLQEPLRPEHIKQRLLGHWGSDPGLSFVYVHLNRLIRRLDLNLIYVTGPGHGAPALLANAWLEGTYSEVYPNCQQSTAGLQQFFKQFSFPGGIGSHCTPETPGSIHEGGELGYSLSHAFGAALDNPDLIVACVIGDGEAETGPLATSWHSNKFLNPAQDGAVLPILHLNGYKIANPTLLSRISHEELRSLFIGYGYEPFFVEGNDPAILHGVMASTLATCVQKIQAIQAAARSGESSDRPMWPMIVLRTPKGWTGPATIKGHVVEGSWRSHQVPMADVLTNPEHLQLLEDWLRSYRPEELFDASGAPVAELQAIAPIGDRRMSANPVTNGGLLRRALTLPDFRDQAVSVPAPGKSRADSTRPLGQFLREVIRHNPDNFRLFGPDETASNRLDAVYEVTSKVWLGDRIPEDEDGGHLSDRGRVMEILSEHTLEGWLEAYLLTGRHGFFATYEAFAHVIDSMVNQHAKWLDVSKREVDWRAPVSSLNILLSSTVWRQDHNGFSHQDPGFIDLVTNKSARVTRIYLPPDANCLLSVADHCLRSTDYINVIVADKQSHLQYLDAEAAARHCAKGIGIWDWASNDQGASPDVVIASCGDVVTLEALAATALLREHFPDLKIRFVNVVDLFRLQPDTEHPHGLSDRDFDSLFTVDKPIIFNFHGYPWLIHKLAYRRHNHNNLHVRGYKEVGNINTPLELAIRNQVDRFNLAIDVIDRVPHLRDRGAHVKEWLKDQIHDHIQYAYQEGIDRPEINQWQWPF
Kind of data set: cryo-EM structure. In kind it is binding. As to conditions: 2 mM AMPPNP; allosteric site at dimer interface, two per dimer, no Mg2+ bound; TPP/Mg2+ present.

For data set [6], the target named is Bifidobacterium longum phosphoketolase (B. longum XPK) (B. longum). Kind of data set: cryo-EM structure; purified B. longum XPK with TPP/Mg2+, free form; D4 symmetry, focused refinement of one dimer.
Data set [7] concerns the target T4, Methylomonas sp. XPK (MeXPK). Kind of data set: acetyl phosphate formation, hydroxamate colorimetric assay. The data set is classed as biochemical. As to conditions: F6P varied, 30 mM phosphate, pH 6.4, 1 mM TPP, 1 mM MgCl2; allosteric. From the text: acetyl phosphate formation, hydroxamate colorimetric assay on Methylomonas sp.
Data set [8] deals with T5, SeXPK. Described as above. In kind it is biochemical. To be noted: F6P varied, 30 mM phosphate, pH 6.4, 1 mM TPP, 1 mM MgCl2; allosteric.
Data set [9] concerns the molecule itself. The data set can be described thus: cryo-EM structure; purified SeXPK ~0.4 mg/ml (2.2 µM of dimer) in 20 mM HEPES-NaOH pH 7.2, 0.1 M NaCl, 0.2 mM TPP, 1 mM MgCl2; free and with 2 mM AMPPNP; D6 symmetry, focused refinement of one dimer.

T1 sequence (Q31LF9 whole entry H706R): as the sequence (Q31LF9 whole entry Y710A) above, with H706R, A710Y counted along it

Consider `O=P(O)(O)OC[C@H]1OC(O)(CO)[C@@H](O)[C@@H]1O` (stereo partly drawn) [F6P], for which, on SeXPK [1], the “ATP sensitivity of activity” value is reported as “H706R mutant of SeXPK shows only minor effect by ATP”. Also, the “acetyl phosphate formation, hydroxamate colorimetric assay” value at SeXPK [2] was “Y710A mutant of SeXPK lost most activity”; at SeXPK [3] it was “H706A mutant of SeXPK lost most activity”. Moreover, the Km entry in data set [4] is “Methylomonas sp. XPK (MeXPK) is also inhibited by ATP”. In the case of `Nc1ncnc2c1ncn2[C@@H]1O[C@H](COP(=O)(O)OP(=O)(O)NP(=O)(O)O)[C@@H](O)[C@H]1O` [AMPPNP, phosphoaminophosphonic acid adenylate ester], on SeXPK [5], the cryo-EM structure entry is “the two subunits jointly bind two AMPPNP”. The stoichiometry N is the number of molecules, sites or subunits per partner or assembly. “Bifidobacterium longum phosphoketolase (B. longum XPK) (enzyme)” yielded a stoichiometry N in data set [6] of 8.

As for `Nc1ncnc2c1ncn2[C@@H]1O[C@H](COP(=O)(O)OP(=O)(O)OP(=O)(O)O)[C@@H](O)[C@H]1O` [ATP, adenosine-5′-triphosphate], in data set [7], the inhibition result is on record as “its allosteric inhibition by ATP was validated based on steady-state kinetics”. Moreover, the “inhibition at 0.5, 1 or 2 mM” value against SeXPK [8] is reported as “SeXPK is inhibited in vitro by ATP through an allosteric mode”.

B1: Synechococcus elongatus PCC7942 phosphoketolase (SeXPK) (enzyme)
chain: T5 sequence (Q31LF9 1-796)
notes: phosphoketolase (XPK) of Synechococcus elongatus PCC7942, locus Synpcc7942_2080; Carries the coenzyme TPP/Mg2+; studied free and with 2 mM AMPPNP; Dodecamer of six dimers by cryo-EM; also called S. elongatus PCC7942 XPK; Synpcc7942_2080; source: E. coli DH5αDE3.1, purified (His-Tag resin, Q Sepharose, Superdex 200); copies: 12
Regarding B1, the “stoichiometry N” value in data set [9] came to 12.
